# Numbering of substitutions follows the chain as printed.
# Legend:
# TPα^S331A = biological target: T1, TPα^S331A (Homo sapiens, UniProt P21731, S331A); assay: [3H]SQ29,548 radioligand binding, Scatchard analysis, HEK.TPα^S331A
# T1 construct: expressed in transfected cells
# T1 sequence (P21731 1-343 S331A): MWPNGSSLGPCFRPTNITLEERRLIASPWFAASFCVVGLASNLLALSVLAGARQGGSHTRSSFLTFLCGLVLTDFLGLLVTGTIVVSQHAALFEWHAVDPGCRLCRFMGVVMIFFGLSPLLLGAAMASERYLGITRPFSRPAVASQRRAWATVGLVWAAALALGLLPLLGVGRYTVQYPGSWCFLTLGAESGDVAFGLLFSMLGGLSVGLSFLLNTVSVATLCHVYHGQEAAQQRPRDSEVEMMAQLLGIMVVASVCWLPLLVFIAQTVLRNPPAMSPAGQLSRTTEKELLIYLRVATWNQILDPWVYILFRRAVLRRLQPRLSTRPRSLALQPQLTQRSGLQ
# Procedure: Cells were harvested by centrifugation at 500×g at 4 °C for 5 min and washed three times with ice-cold Ca^2+/Mg^2+-free phosphate-buffered saline (PBS). TP radioligand binding assays were carried out at 30 °C for 30 min in 100 μl reactions in the presence of 0–40 nM [^3H] […] Protein determinations were carried out using the Bradford assay.
# Radioligand binding and Scatchard analysis data were analysed using GraphPad Prisim V4.0 programme (GraphPad Software Inc., San Diego CA, USA). Statistical analyses were carried out using the unpaired Student's t test using the Statworks Analysis Package. p-values ≤ 0.01 indicated statistically significant differences.
# TPα^S239A = biological target: T2, TPα^S239A (Homo sapiens, UniProt P21731, S239A); assay: Intracellular calcium mobilization, HEK.TPα^S239A cells; assay type: cell-based
# T2 construct: expressed in transfected cells
# T2 sequence (P21731 1-343 S239A): T1 sequence (P21731 1-343 S331A) with S239A, A331S
# Procedure: (§1) Measurement of intracellular calcium mobilization ([Ca^2+]i) in FURA2/AM preloaded HEK 293 cell lines (2 × 10^6 cells/dish), each transiently co-transfected with pADVA (10 μg), and pCMV:Gαq (25 μg), was carried out as previously described. To investigate the effect of GRK2/βARK1 on TP-mediated [Ca^2+]i mobilization, HEK.TPα or HEK.TPβ cells (2 × 10^6 cells/dish) were co-transfected with pADVA (10 μg), pCMV:Gαq (25 μg) along with pRK5:βARK1^495–689 (25 μg), encoding a dominant negative form of GRK2/βARK1[39]. Approximately 48 h post-transfection, cells were harvested by scraping, washed twice in ice-cold PBS and resuspended in HBSSHB (modified Ca^2+/Mg^2+-free Hank's buffered salt solution, containing […], pH 7.67, 0.1% bovine serum albumin (BSA)) buffer at 10^7 cells/ml and incubated in the dark with 5 μM FURA2/AM for 45 min at 37 °C. Cells were collected by centrifugation (900×g, 5 min), washed once in an equal volume of HBSSHB, and were finally resuspended in HBSSHB buffer at 10^7 cells/ml and kept at room temperature in the dark for 40 min. For each measurement of [Ca^2+]i mobilization, aliquots of cells were diluted to 0.825 × 10^6 cells/ml in HBSSHB, 1 mM CaCl2 and FURA2 fluorescence was recorded (2 ml aliquots of cells) at 37^ °C with gentle stirring with a Perkin Elmer-Cetus LS50-B spectrofluorometer at excitation wavelengths of 340 nm and 380 nm and emission wavelength of 510 nm, respectively.
# Cells were stimulated with the TP agonist U46619 (1 μM) and changes in [Ca^2+]i mobilization were monitored as a function of time. To assess agonist-mediated homologous desensitization, cells (0.825 × 10^6 cells/ml; 2 ml per assay) were stimulated with 1 μM U46619 (Primary stimulation) or, as a control, with the vehicle for 4 min; thereafter, cells were collected by centrifugation (900×g, 5 min); were washed twice in 2 ml HBSSHB, 1 mM CaCl2; and finally resuspended in 2 ml HBSSHB,1 mM CaCl2 and were left to recover over various time intervals (ranging from 0 to 60 min); thereafter, cells re-stimulated with 1 μM U46619 (Secondary stimulation) and changes in [Ca^2+]i mobilization were monitored as a function of time. […]
# The vehicle had no effect on U46619-mediated [Ca^2+]i mobilization. Calibration of the signal was performed in each sample by adding 0.2% Triton X-100 to obtain the maximal fluorescence ratio (Rmax) and then 1 mM EGTA to obtain the minimal fluorescence ratio (Rmin). […] Changes in [Ca^2+]i mobilization were determined by measuring peak rises in [Ca^2+]i mobilized (Δ[Ca^2+]i) and were calculated as mean changes in Δ[Ca^2+]i ± S.E.M. (nM).
# TPβ = biological target: T3, TPβ (Homo sapiens, UniProt P21731); assay: Intracellular calcium mobilization, HEK.TPβ cells; assay type: cell-based
# T3 construct: expressed in transfected cells
# T3 sequence (P21731 1-407 isoform P21731-2): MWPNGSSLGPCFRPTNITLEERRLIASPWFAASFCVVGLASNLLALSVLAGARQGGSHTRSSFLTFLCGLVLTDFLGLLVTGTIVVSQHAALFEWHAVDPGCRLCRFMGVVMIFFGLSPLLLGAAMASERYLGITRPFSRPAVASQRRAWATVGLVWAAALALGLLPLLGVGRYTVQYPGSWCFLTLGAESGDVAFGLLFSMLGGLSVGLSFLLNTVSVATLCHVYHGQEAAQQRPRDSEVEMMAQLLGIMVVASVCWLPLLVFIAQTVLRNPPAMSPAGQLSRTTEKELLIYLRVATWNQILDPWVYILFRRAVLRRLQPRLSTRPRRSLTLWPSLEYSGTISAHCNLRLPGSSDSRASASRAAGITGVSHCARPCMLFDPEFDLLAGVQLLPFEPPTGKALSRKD
# Procedure: as §1
# Cells were stimulated with the TP agonist U46619 (1 μM) and changes in [Ca^2+]i mobilization were monitored as a function of time. To assess agonist-mediated homologous desensitization, cells (0.825 × 10^6 cells/ml; 2 ml per assay) were stimulated with 1 μM U46619 (Primary stimulation) or, as a control, with the vehicle for 4 min; thereafter, cells were collected by centrifugation (900×g, 5 min); were washed twice in 2 ml HBSSHB, 1 mM CaCl2; and finally resuspended in 2 ml HBSSHB,1 mM CaCl2 and were left to recover over various time intervals (ranging from 0 to 60 min); thereafter, cells re-stimulated with 1 μM U46619 (Secondary stimulation) and changes in [Ca^2+]i mobilization were monitored as a function of time. To assess the role of protein kinase (PK) A, PKC or PKG on U46619-mediated desensitization of TPα signalling, cells were pre-incubated with the PKA inhibitor H-89 (10 μM), the PKC inhibitor GF 109203X (50 nM) or the PKG inhibitor KT 5823 (50 nM), for 15 min and respective kinase inhibitors were maintained throughout the primary/secondary U46619-stimulations and during the washes.
# The vehicle had no effect on U46619-mediated [Ca^2+]i mobilization. Calibration of the signal was performed in each sample by adding 0.2% Triton X-100 to obtain the maximal fluorescence ratio (Rmax) and then 1 mM EGTA to obtain the minimal fluorescence ratio (Rmin). The ratio of the fluorescence at 340 nm to that at 380 nm is a measure of [Ca^2+]i, which assumes a Kd of 225 nM Ca^2+ for FURA2/AM. The results presented in the figures are representative data from at least three or four independent experiments and are plotted as changes in Ca^2+i mobilized (Δ[Ca^2+]i (nM)) as a function of time (s) upon ligand stimulation. Changes in [Ca^2+]i mobilization were determined by measuring peak rises in [Ca^2+]i mobilized (Δ[Ca^2+]i) and were calculated as mean changes in Δ[Ca^2+]i ± S.E.M. (nM).
# [1] = + GRK^DN, secondary 1 μM U46619 at 15 min
# [2] = − GRK^DN, secondary 1 μM U46619 at 15 min
Compound,Bmax (pmol/mg protein ± S.E.M.) (TPα^S331A) [pmol/mg protein],"Δ[Ca2+]i, U46619-induced (TPα^S239A; + GRK^DN, primary 1 μM U46619) [nM]","Δ[Ca2+]i, U46619-induced (TPα^S239A; [1]) [nM]","Δ[Ca2+]i, U46619-induced (TPα^S239A; − GRK^DN, primary 1 μM U46619) [nM]","Δ[Ca2+]i, U46619-induced (TPα^S239A; [2]) [nM]","Δ[Ca2+]i, U46619-induced (TPβ; + GRK^DN, primary 1 μM U46619) [nM]","Δ[Ca2+]i, U46619-induced (TPβ; [1]) [nM]","Δ[Ca2+]i, U46619-induced (TPβ; − GRK^DN, primary 1 μM U46619) [nM]","Δ[Ca2+]i, U46619-induced (TPβ; [2]) [nM]"
"O=C(O)CCC/C=C\C[C@@H]1[C@H](CNNC(=O)Nc2ccccc2)[C@H]2CC[C@@H]1O2 [SQ29,548]",4.00 ± 0.04,,,,,,,,
CCCCC[C@H](O)/C=C/[C@@H]1[C@@H](C/C=C\CCCC(=O)O)[C@H]2CO[C@@H]1C2 [U46619],,180 ± 9,0,176 ± 10.3,0,195 ± 11,210 ± 12,180 ± 6.7,0

# From publication PMC2680961, “Homologous desensitization of signalling by the alpha (α) isoform of the human thromboxane A2 receptor: A specific role for nitric oxide signalling” (Biochimica et Biophysica Acta, 2007)
